The values below are quoted from earlier work in patent US11420990B2, “Ruthenium complex containing alkynyl group, method of synthesizing the same and use thereof” (GUANGDONG PHARMACEUTICAL UNIVERSITY, priority 2018, dated 2022).

The subject of this series is cancer cells. As to conditions: background statement.

For the molecule `[Ru+2].c1ccc(-c2ccccn2)nc1.c1ccc(-c2ccccn2)nc1.c1ccc2nc3c4cccnc4c4ncccc4c3nc2c1` [[Ru(bpy)2(dppz)]^2+], the “cytotoxicity to cancer cells (in words)” value was “insignificant cytotoxicity”.
